Results as given in US9370507B2, “Pyridonyl guanidine F1F0-ATPase inhibitors and therapeutic uses thereof” (Lycera Corporation, priority 2010, dated 2016).
pEC50, pIC50: −log10 of the molar value.

Legend:
[1] = target: T1, F1F0-ATPase (Bos taurus, UniProt P13621); experiment: Inhibition of F1F0-ATPase activity in synthesizing ATP; type: biochemical; settings: inhibition of ATP synthesis; read-out: ATP Syn IC50
T1 construct: from tissue
Description: (§1) The compounds listed in Table 4 were tested for activity against F1F0-ATPase by measuring the ability of the compounds to inhibit ATP synthesis. In addition, the compounds were assessed for cytotoxicity in Ramos cells Inhibition of F1F0-ATPase activity in synthesizing ATP and cytotoxicity in Ramos cells were measured according to the procedures described in K. M. Johnson et al. Chemistry & Biology 2005, 12, 485-496.

[2] = tested on: Ramos cells; experiment: Cytotoxicity in Ramos cells; type: cell-based; settings: Homo sapiens, read-out: Ramos Cell EC50
Description: as §1

pIC50 [1]	Structure (SMILES)	pEC50 [2]
> 5.00	O=C(/N=C(\Nc1cccc(C(F)(F)F)c1)Nc1cccc(O)n1)c1ccc(C(F)(F)F)cc1 [Compound A-1]	> 5.00
> 5.00	O=C(/N=C(/Nc1cc(F)cc(Cl)c1)Nc1cccc(O)n1)c1ccc(C(F)(F)F)cc1 [Compound A-2]	> 5.00
> 5.00	O=C(/N=C(/Nc1cccc(C(F)(F)F)c1)Nc1cccc(O)n1)c1ccc(F)c(F)c1 [Compound A-3]	> 5.00
> 5.00	O=C(/N=C(/Nc1cc(F)cc(Cl)c1)Nc1cccc(O)n1)c1ccc(F)c(F)c1 [Compound A-4]	> 5.00
> 5.00	O=C(/N=C(/Nc1ccc(F)c(Cl)c1)Nc1cccc(O)n1)c1ccc(C(F)(F)F)cc1 [Compound A-5]	> 5.00
> 5.00	O=C(/N=C(\Nc1cccc(O)n1)Nc1ccccc1C1CC1)c1ccc(C(F)(F)F)cc1 [Compound A-6]	> 5.00
> 5.00	O=C(N/C(=N\c1cccc(O)n1)Nc1cccc(Cl)c1)c1ccc(C(F)(F)F)cc1 [Compound A-7]	> 5.00
> 5.00	O=C(N/C(=N\c1cccc(O)n1)Nc1cc(F)cc(Cl)c1)c1ccc(Cl)cc1 [Compound A-8]	> 5.00
< 5.00	O=C(N/C(=N\c1cccc(O)n1)Nc1ccc(F)c(Cl)c1)c1ccc(F)c(F)c1 [Compound A-9]	< 5.00
< 5.00	CN(/C(=N\C(=O)c1ccc(F)c(F)c1)Nc1cccc(O)n1)c1ccc(F)c(Cl)c1 [Compound A-10]	< 5.00
> 5.00	O=C(/N=C(\Nc1cccc(O)n1)Nc1ccc(F)cc1C1CC1)c1ccc(F)c(F)c1 [Compound A-11]	> 5.00
> 5.00	O=C(/N=C(\Nc1cccc(O)n1)Nc1ccc(F)cc1C1CC1)c1ccc(C(F)(F)F)cc1 [Compound A-12]	> 5.00
> 5.00	CC(C)(C)c1ccccc1N/C(=N/C(=O)c1ccc(F)c(F)c1)Nc1cccc(O)n1 [Compound A-13]	> 5.00
> 5.00	CC(C)(C)c1ccccc1N/C(=N/C(=O)c1ccc(C(F)(F)F)cc1)Nc1cccc(O)n1 [Compound A-14]	> 5.00
> 5.00	O=C(/N=C(/Nc1cccc(C(F)(F)F)c1)Nc1cccc(O)n1)c1ccc(Cl)cc1 [Compound A-15]	> 5.00
> 5.00	O=C(/N=C(/Nc1cccc(C(F)(F)F)c1)Nc1cccc(O)n1)c1cccc(Cl)c1 [Compound A-16]	> 5.00
> 5.00	O=C(/N=C(/Nc1cccc(C(F)(F)F)c1)Nc1cccc(O)n1)c1cccc(C(F)(F)F)c1 [Compound A-17]	> 5.00
> 5.00	O=C(/N=C(/Nc1cccc(C(F)(F)F)c1)Nc1cccc(O)n1)c1ccc(Cl)c(F)c1 [Compound A-18]	> 5.00
> 5.00	O=C(/N=C(/Nc1cccc(Cl)c1)Nc1cccc(O)n1)c1cccc(Cl)c1 [Compound A-19]	> 5.00
> 5.00	O=C(/N=C(/Nc1cccc(Cl)c1)Nc1cccc(O)n1)c1cccc(C(F)(F)F)c1 [Compound A-20]	> 5.00
> 5.00	O=C(/N=C(/Nc1cc(F)cc(Cl)c1)Nc1cccc(O)n1)c1cccc(Cl)c1 [Compound A-21]	> 5.00
> 5.00	O=C(/N=C(/Nc1cc(F)cc(Cl)c1)Nc1cccc(O)n1)c1cccc(C(F)(F)F)c1 [Compound A-22]	> 5.00

pIC50 [1]	Structure (SMILES)	pEC50 [2]
> 5.00	O=C(/N=C(/Nc1cc(F)cc(Cl)c1)Nc1cccc(O)n1)c1ccc(Cl)c(F)c1 [Compound A-23]	> 5.00
> 5.00	O=C(/N=C(/Nc1cccc(Cl)c1)Nc1cccc(O)n1)c1ccc(F)c(F)c1 [Compound A-24]	> 5.00
> 5.00	O=C(/N=C(/Nc1cccc(Cl)c1)Nc1cccc(O)n1)c1ccc(Cl)cc1 [Compound A-25]	< 5.00
> 5.00	O=C(/N=C(/Nc1cccc(C2CC2)c1)Nc1cccc(O)n1)c1ccc(C(F)(F)F)cc1 [Compound A-26]	> 5.00
> 5.00	O=C(/N=C(/NCc1ccc(F)c(Cl)c1)Nc1cccc(O)n1)c1ccc(F)c(F)c1 [Compound A-27]	> 5.00
> 5.00	O=C(/N=C(/NCc1ccc(F)c(Cl)c1)Nc1cccc(O)n1)c1ccc(C(F)(F)F)cc1 [Compound A-28]	> 5.00
> 5.00	CC1CCC(N/C(=N/C(=O)c2ccc(C(F)(F)F)cc2)Nc2cccc(O)n2)CC1 (centres unmarked) [Compound A-29]	> 5.00
> 5.00	O=C(/N=C(\Nc1cccc(O)n1)NC1CCC(F)(F)CC1)c1ccc(C(F)(F)F)cc1 [Compound A-30]	> 5.00
> 5.00	O=C(/N=C(\Nc1cccc(O)n1)NC1CCC(F)(F)CC1)c1ccc(F)c(F)c1 [Compound A-31]	> 5.00
> 5.00	O=C(/N=C(/NCc1ccccc1C(F)(F)F)Nc1cccc(O)n1)c1ccc(C(F)(F)F)cc1 [Compound A-32]	> 5.00
> 5.00	O=C(/N=C(/NCc1cccc(C(F)(F)F)c1)Nc1cccc(O)n1)c1ccc(C(F)(F)F)cc1 [Compound A-33]	> 5.00
> 5.00	O=C(/N=C(/NCc1ccc(C(F)(F)F)cc1)Nc1cccc(O)n1)c1ccc(C(F)(F)F)cc1 [Compound A-34]	> 5.00
> 5.00	O=C(/N=C(/NCc1ccc(C(F)(F)F)cc1)Nc1cccc(O)n1)c1ccc(F)c(F)c1 [Compound A-35]	> 5.00
> 5.00	O=C(/N=C(/NCc1ccc(F)c(F)c1)Nc1cccc(O)n1)c1ccc(C(F)(F)F)cc1 [Compound A-36]	> 5.00
> 5.00	O=C(/N=C(/NCc1cc(F)c(F)c(F)c1)Nc1cccc(O)n1)c1ccc(C(F)(F)F)cc1 [Compound A-37]	> 5.00
> 5.00	O=C(/N=C(/NCc1c(F)cc(F)cc1F)Nc1cccc(O)n1)c1ccc(C(F)(F)F)cc1 [Compound A-38]	> 5.00
> 5.00	O=C(/N=C(\Nc1cccc(O)n1)NC1CCCCCC1)c1ccc(C(F)(F)F)cc1 [Compound A-39]	> 5.00
> 5.00	O=C(/N=C(/NCC1CC1)Nc1cccc(O)n1)c1ccc(C(F)(F)F)cc1 [Compound A-40]	> 5.00
> 5.00	CC(C)(C)N/C(=N/C(=O)c1ccc(C(F)(F)F)cc1)Nc1cccc(O)n1 [Compound A-41]	> 5.00
> 5.00	O=C(/N=C(/NCC1CCCCC1)Nc1cccc(O)n1)c1ccc(C(F)(F)F)cc1 [Compound A-42]	> 5.00
> 5.00	CC1CCCCC1NC(=NC(=O)c1ccc(C(F)(F)F)cc1)Nc1cccc(O)n1 (centres unmarked) [Compound A-43]	< 5.00
> 5.00	CC(C)(C)N/C(=N\C(=O)c1ccc(Cl)c(F)c1)Nc1cccc(O)n1 [Compound A-44]	> 5.00

pIC50 [1]	Structure (SMILES)	pEC50 [2]
> 5.00	CC(C)(C)N/C(=N\C(=O)c1ccc(F)c(F)c1)Nc1cccc(O)n1 [Compound A-45]	> 5.00
> 5.00	CC1(N/C(=N\C(=O)c2ccc(C(F)(F)F)cc2)Nc2cccc(O)n2)CC1 [Compound A-46]	> 5.00
> 5.00	CC1(N/C(=N\C(=O)c2ccc(C(F)(F)F)cc2)Nc2cccc(O)n2)CCC1 [Compound A-47]	> 5.00
> 5.00	O=C(/N=C(\Nc1cccc(O)n1)NC1CC1)c1ccc(C(F)(F)F)cc1 [Compound A-48]	< 5.00
< 5.00	O=C(/N=C(/Nc1cccc(O)n1)NC1CC1)c1ccc(F)c(F)c1 [Compound A-49]	< 5.00
> 5.00	O=C(/N=C(/Nc1cccc(O)n1)NC1CC1)c1ccc(Cl)c(F)c1 [Compound A-50]	< 5.00
> 5.00	CC(C)(N/C(=N/C(=O)c1ccc(C(F)(F)F)cc1)Nc1cccc(O)n1)C(F)(F)F [Compound A-51]	> 5.00
> 5.00	O=C(/N=C(/NCC(F)(F)F)Nc1cccc(O)n1)c1ccc(C(F)(F)F)cc1 [Compound A-52]	> 5.00
> 5.00	Cc1cc(CN/C(=N/C(=O)c2ccc(C(F)(F)F)cc2)Nc2cccc(O)n2)no1 [Compound A-53]	> 5.00
> 5.00	Cc1cc(CN/C(=N/C(=O)c2ccc(F)c(F)c2)Nc2cccc(O)n2)no1 [Compound A-54]	< 5.00
> 5.00	Cc1cc(CN/C(=N/C(=O)c2ccc(Cl)c(F)c2)Nc2cccc(O)n2)no1 [Compound A-55]	< 5.00
> 5.00	O=C(/N=C(\NCC(F)(F)F)Nc1cccc(O)n1)c1ccc(Cl)cc1 [Compound A-56]	> 5.00
> 5.00	CC(C)(N/C(=N\C(=O)c1ccc(Cl)cc1)Nc1cccc(O)n1)C(F)(F)F [Compound A-57]	> 5.00
> 5.00	CC1(N/C(=N\C(=O)c2ccc(Cl)cc2)Nc2cccc(O)n2)CCC1 [Compound A-58]	> 5.00
> 5.00	O=C(/N=C(/Nc1cccc(O)n1)NC(C1CC1)C1CC1)c1ccc(C(F)(F)F)cc1 [Compound A-59]	> 5.00
> 5.00	O=C(/N=C(/NCc1cc(F)c(F)c(F)c1)Nc1cccc(O)n1)c1ccc(Cl)cc1 [Compound A-60]	< 5.00
> 5.00	CC1(N/C(=N/C(=O)c2ccc(C(F)(F)F)cc2)Nc2cccc(O)n2)CCCC1 [Compound A-61]	> 5.00
> 5.00	CC1(N/C(=N/C(=O)c2ccc(Cl)cc2)Nc2cccc(O)n2)CCCC1 [Compound A-62]	> 5.00
> 5.00	O=C(N=C(Nc1cccc(O)n1)NC1CCC(C(F)(F)F)CC1)c1ccc(C(F)(F)F)cc1 (centres unmarked) [Compound A-63]	> 5.00
> 5.00	O=C(N=C(Nc1cccc(O)n1)NC1CCC(C(F)(F)F)CC1)c1ccc(Cl)cc1 (centres unmarked) [Compound A-64]	> 5.00
